The source of these data is patent US10308682B2, “Inhibition of tumor growth with aggregates of small molecules” (BRANDEIS UNIVERSITY, priority 2013, dated 2019).

For series [1], the system named is HeLa cells. As to the kind of experiment: FITC annexin V / PI staining of HeLa cells. In kind it is cell-based. The conditions noted are these: 400 μM, 36 h. An excerpt: To determine the process of cell death induced by the aggregates of 1, we used FITC conjugated annexin V and propidium iodide (PI) to stain the cells (FIG. 3b). Being membrane impermeable, PI discriminates viable cells from late apoptotic or necrotic cells, and FITC conjugated annexin V binds to plasma membrane of apoptotic and necrotic cells as the former ones have extracellular exposed phosphatidylserine and the latter ones lose membrane integrity.

For another series, the target named is T1, tubulin (Homo sapiens, UniProt P68366+P68371).
T1 construct: snap freeze and thaw for 3 cycles to lyse the cells; endogenous in cells; host or cells: HeLa cell lysate
T1 sequence (P68366 whole entry): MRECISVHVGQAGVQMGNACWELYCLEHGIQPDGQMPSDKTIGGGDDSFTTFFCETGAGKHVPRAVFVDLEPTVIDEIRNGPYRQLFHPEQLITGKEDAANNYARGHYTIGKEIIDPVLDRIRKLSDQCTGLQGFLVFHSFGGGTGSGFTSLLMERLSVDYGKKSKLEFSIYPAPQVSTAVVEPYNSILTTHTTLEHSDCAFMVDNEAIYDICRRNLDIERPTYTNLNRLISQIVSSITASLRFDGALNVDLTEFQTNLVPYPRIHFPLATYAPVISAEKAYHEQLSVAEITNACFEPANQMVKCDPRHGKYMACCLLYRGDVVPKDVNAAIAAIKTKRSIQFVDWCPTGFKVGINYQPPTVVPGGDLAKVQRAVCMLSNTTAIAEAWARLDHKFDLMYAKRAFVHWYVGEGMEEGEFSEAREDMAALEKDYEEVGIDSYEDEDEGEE
T1 sequence (P68371 whole entry): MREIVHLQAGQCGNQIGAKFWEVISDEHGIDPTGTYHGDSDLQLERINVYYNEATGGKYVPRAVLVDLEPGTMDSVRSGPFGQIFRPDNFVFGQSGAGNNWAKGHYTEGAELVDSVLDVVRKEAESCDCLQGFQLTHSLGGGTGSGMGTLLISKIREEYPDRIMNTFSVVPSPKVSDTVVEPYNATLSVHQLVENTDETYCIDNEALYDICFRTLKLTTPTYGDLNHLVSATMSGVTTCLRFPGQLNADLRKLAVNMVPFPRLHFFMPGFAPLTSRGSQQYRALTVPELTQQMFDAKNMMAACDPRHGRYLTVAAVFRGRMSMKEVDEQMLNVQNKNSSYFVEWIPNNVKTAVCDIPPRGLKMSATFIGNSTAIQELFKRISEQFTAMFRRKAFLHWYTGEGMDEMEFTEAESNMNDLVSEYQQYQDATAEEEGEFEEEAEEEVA
As to the kind of experiment: Hydrogel based protein pull-down assay, tubulin. It counts as binding. The conditions noted are these: hydrogel 10 mM, HeLa cell lysate, Western blot. The method, then:
(§1) 4×10^7 of HeLa cells were scrapped from petri dish and washed with PBS buffer for 3 times then centrifuged at 300 g for 5 minutes. The collected cell pellet was mixed with phosphate buffer (100 mM) then snap freeze and thaw for 3 cycles to lyse the cells. The cell lysate was clarified by centrifugation at 12,000 g for 20 min at 4° C. to remove the whole cells, nuclei and large mitochondria. 50 μL of the supernatant lysate was gently mixed with 30 μL hydrogel of 1 (10 mM in PBS buffer, pH 7.6) on rotator at RT for 30 min. The hydrogel was collected by centrifugation (12,000 g, 5 min, 4° C.) and the supernatant was collected and placed on ice before analysis. The hydrogel was washed three times by gently mixing with 50 μL of the washing buffer (50 mM phosphate buffer pH 7.6 supplemented with 150 mM NaCl) on rotator at RT for 10 min followed by separation on centrifuge (12,000 g, 5 min, 4° C.). Supernatants were collected and placed on ice before analysis. Finally, the remaining hydrogel was dissolved using 1:1 washing buffer and 5× Laemeli buffer. All other samples were mixed with 5× Laemeli buffer (final concentration 2×) before SDS-PAGE.
(§2) That 1 enters the cells to affect cell cycle, cell migration, and eventually cell viability implies the interactions between the aggregates of 1 and certain intracellular proteins. […]
For orientation: A western blot detects proteins with antibodies after separation by electrophoresis.

The target of a further series is T2, actin (Homo sapiens, UniProt P60709).
T2 construct: snap freeze and thaw for 3 cycles to lyse the cells; endogenous in cells; host or cells: HeLa cell lysate
As to the kind of experiment: Hydrogel based protein pull-down assay, actin. It counts as binding. The conditions noted are these: hydrogel 10 mM, HeLa cell lysate, Western blot. The method, then:
as §1, §2

The target in the next series is T3, microtubules (Sus scrofa, UniProt P02550+P02554).
T3 construct: purchased Cytoskeleton
T3 sequence (P02550 whole entry): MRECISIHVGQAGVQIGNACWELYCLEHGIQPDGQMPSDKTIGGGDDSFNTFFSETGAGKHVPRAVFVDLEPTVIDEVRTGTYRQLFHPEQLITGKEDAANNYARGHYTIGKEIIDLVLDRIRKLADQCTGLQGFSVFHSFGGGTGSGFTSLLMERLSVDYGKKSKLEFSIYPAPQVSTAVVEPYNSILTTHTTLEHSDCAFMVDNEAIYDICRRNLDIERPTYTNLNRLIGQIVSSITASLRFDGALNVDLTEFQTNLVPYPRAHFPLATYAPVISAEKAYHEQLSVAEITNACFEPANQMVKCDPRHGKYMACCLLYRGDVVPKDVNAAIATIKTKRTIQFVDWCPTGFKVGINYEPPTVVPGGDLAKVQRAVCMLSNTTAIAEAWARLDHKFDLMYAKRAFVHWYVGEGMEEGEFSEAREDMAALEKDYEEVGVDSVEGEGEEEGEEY
T3 sequence (P02554 whole entry): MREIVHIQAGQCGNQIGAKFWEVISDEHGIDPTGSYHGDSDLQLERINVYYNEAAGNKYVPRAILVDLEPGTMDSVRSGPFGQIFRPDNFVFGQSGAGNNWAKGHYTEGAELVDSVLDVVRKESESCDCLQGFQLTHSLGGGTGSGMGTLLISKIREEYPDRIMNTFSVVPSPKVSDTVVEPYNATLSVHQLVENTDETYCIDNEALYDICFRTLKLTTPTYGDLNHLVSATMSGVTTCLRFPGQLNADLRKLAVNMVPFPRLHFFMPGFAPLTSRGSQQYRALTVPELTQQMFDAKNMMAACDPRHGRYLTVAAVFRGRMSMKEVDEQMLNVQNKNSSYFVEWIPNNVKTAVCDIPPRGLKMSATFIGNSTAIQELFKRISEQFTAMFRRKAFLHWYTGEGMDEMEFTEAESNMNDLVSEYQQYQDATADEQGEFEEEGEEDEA
As to the kind of experiment: Addition of 1 to fully assembled microtubules. In kind it is biochemical. The conditions noted are these: final concentration 200 to 500 μM, added after 60 min polymerization. From the text: Tubulin polymerization assay in the presence of 1. In vitro tubulin polymerization reactions in (a) as prepared or (c) filtered reaction cocktail without 1 (control) or with different concentrations of 1. The amount of microtubule is in proportion to optical density at 340 nm. The calculated polymerization rate (Vmax) and the final tubulin polymer mass vs concentrations of 1 from tubulin polymerization in (b) as prepared or (d) filtered reaction cocktail. Negative stained TEM images of molecular aggregates of 1 binding with tubulin. Buffer (control) or 1 (final concentration at 200 to 500 μM) was introduced into reaction cocktail containing fully assembled microtubule (after 60 min of polymerization). The amount of microtubule remain unchanged after 30 min. (e) Molecular aggregates of 1 (400 μM) incubated with tubulins heterodimers in general tubulin buffer. Scale bar=40 nm. White arrows point at tubulin clusters on the molecular aggregates of 1. […]
Microtubules are highly dynamic, growing and shrinking at a constant rate. To determine whether molecular aggregates of 1 achieve the inhibition of microtubule formation through preventing microtubule growth or accelerating microtubule shrinkage, we applied 1 to the polymerization mixture after most of tubulin heterodimers already formed microtubules (60 min of pre-incubation) and monitored the change of microtubules.

Series [2] relates to HeLa cells. As to the kind of experiment: Tubulin staining (tubulin tracker), HeLa cells. In kind it is cell-based. The conditions noted are these: 24 h. The method, then:
Cells in exponential growth phase were seeded in glass bottomed culture chamber at 10,000 cell/mL. The cells were allowed for attachment for 24 h at 37° C., 5% CO2. The culture medium was removed, and new culture medium containing 1 at 0 or 400 μM was added. After 24 h of incubation, cells were washed with PBS buffer for 3 times and stained by Tubulin Tracker™ Green at 100 nM and DAPI 300 nM in PBS for 30 min at 37° C. in dark. The sample was rinsed three times in PBS, and the cells were kept in PBS for imaging.
To confirm that the aggregates of 1 clusters multiple tubulin heterodimers and inhibit the formation of microtubules inside live cells, we used a tubulin tracker that selectively binds to tubulin polymers (microtubules) over tubulin monomers to stain the HeLa cells treated with 1 at different concentrations for 24 h. […] As the tubulin tracker only stains microtubule (i.e., polymerized tubulin heterodimers), the fluorescence from the cluster indicates the tubulin heterodimers in the clusters are short microtubules. […] The loss of microtubules induced by molecular aggregates of 1 explains the origins of the delay of cell migration and the arrest of cell-cycle in HeLa cells incubated with 400 or 500 μM of 1.

The nature of series [3]: Influence of surfactant Triton X-100 on hydrogel of 1. In kind it is physicochemical. The conditions noted are these: 1 at 10 mM. The method, then: FIG. 14 depicts the influence of a surfactant on self-assembly of 1. Triton X-100 was mixed with 1 (10 mM) before and after hydrogel formation. The hydrogel of 1 can tolerate up to 0.1% Triton X-100. Treated with 0.1% Triton X-100, the fibrillar aggregates of 1 tend to cross-link with each other instead of randomly dispersing, but the width of fibrillar aggregates remains unchanged.

With `O=C(Cc1ccc2ccccc2c1)N[C@@H](Cc1ccccc1)C(=O)N[C@@H](Cc1ccccc1)C(=O)O` [Compound 1], in the series with HeLa cells [1], the “process of cell death” value is “induce apoptosis”. Also, the “binding of tubulin to the aggregates of 1” value on tubulin is reported as “higher affinity to the aggregates of 1 than actin does”. Further, the “binding of actin to the aggregates of 1” value on actin was “low binding affinity”. The “loss of preformed microtubules” value at microtubules is “little notable loss of microtubules”. Also, the microtubule morphology result in the series with HeLa cells [2] (200 μM) is “essentially the same morphology and distribution as those in the control cells”; in the series on HeLa cells [2] (300 μM) it was “a small amount of the microtubules appear to be shorter than those in the control cells”; in the series on HeLa cells [2] (400 μM) it was “large clusters surrounded by scattered microtubule fibrils”; in the series with HeLa cells [2] (400 μM, medium filtered by 0.22 μm PVDF membrane) it was “(almost) normal microtubule networks, with only few clusters”. For the same molecule, the “Triton X-100 tolerated by the hydrogel” value in series [3] is recorded as “up to 0.1 % Triton X-100”.
